Reference: ChEMBL document CHEMBL1132469 (J Med Chem, 1999)
pIC50: −log10 of the molar value.

Columns and labels:
Histone deacetylase HD2 [1] = molecular target: T1, Histone deacetylase HD2 (Zea mays, UniProt Q94F81); assay: Inhibition of maize Histone Deacetylase 2 (HD-2) activity (inactive at 40 uM)
T1 sequence (Q94F81 whole entry): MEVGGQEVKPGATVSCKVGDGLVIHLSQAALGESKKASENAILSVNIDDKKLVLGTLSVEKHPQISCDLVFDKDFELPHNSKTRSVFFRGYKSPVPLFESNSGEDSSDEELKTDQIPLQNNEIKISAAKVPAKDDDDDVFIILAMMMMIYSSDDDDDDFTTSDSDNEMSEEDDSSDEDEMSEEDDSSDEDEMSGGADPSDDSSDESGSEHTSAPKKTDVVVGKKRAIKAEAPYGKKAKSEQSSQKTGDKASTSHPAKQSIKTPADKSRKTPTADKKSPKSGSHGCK

Histone deacetylase HD2 [2] = molecular target: T1, Histone deacetylase HD2; assay: Inhibition of maize Histone deacetylase 2 (HD-2) activity

| Structure (SMILES) | IC50 (Histone deacetylase HD2 [1]) | pIC50 (Histone deacetylase HD2 [2]) |
| --- | --- | --- |
| O=C(O)CCCCCNC(=O)c1ccccc1 | Not Active |  |
| CN(C)c1ccc(C(=O)NCCCCCCC(=O)NO)cc1 |  | 7.00 |
| CN(C)c1ccc(C(=O)NCCCCC(=O)NO)cc1 |  | 5.70 |
| CN(C)c1ccc(C(=O)NCCCCCC(=O)NO)cc1 |  | 7.00 |

Results, then the compound that gave them:

| IC50 (Histone deacetylase HD2 [1]) | pIC50 (Histone deacetylase HD2 [2]) | Structure (SMILES) |
| --- | --- | --- |
|  | 6.74 | CN(C)c1ccc(C(=O)NCc2ccc(C(=O)NO)cc2)cc1 |
| Not Active |  | CN(C)c1ccc(C(=O)Nc2ccc(CC(=O)NO)cc2)cc1 |
| Not Active |  | CN(C)c1ccc(C(=O)Nc2ccc(CC(=O)O)cc2)cc1 |
